# Patent US20230085307A1, “PYRIDAZINONE COMPOUND AND HERBICIDE” (NISSAN CHEMICAL CORPORATION, priority 2019, published 2023)
# Experiments:
# barnyard grass [1] = test: Test Example 3: herbicidal effect by foliage application, Wagner pot (Table 18, symbol H); type: in vivo, barnyard grass (Echinochloa crus-galli)
# Procedure, shortened: (§1)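 Plants were sown in alluvial soil held under 0.1–0.5 cm standing water and grown 14 days in a greenhouse at 25–30 °C. An emulsifiable formulation, water-diluted to the set dose, was then sprayed onto the foliage, and effects were scored three weeks later using previously defined criteria.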
# velvetleaf [2] = test: Test Example 4: herbicidal effect by soil treatment (Table 19, symbol M); type: in vivo, velvetleaf (Abutilon theophrasti)
# Procedure, shortened: (§2)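 Three weeks of greenhouse growth at 25° C. to 30° C. followed a uniform surface spray of water-diluted emulsion at a predetermined herbicide amount. Seeds had been sown beforehand under about 1.5 cm of sterilized diluvial soil. Grading followed criteria set out in an earlier test.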
# barnyard grass [3] = test: Test Example 5: herbicidal effect by foliage application, plastic box (Table 20, symbol H); type: in vivo, barnyard grass (Echinochloa crus-galli); details: foliage application, 320 g/ha
# Procedure, shortened: (§3)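 Plants sown in sterilized diluvial soil and grown 14 days in a greenhouse at 25° C to 30° C, then sprayed on the foliage with the compound's emulsion diluted in water to a predetermined herbicide amount. Injury to weeds and crops scored three weeks after application on a visual rating scale.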
# rice flat sedge = test: Test Example 3: herbicidal effect by foliage application, Wagner pot (Table 18, symbol E); type: in vivo, rice flat sedge (Cyperus iria)
# Procedure, shortened: as §1
# redroot pigweed [4] = test: Test Example 4: herbicidal effect by soil treatment (Table 19, symbol N); type: in vivo, redroot pigweed (Amaranthus retroflexus); details: 320 g/ha
# Procedure, shortened: as §2
# blackgrass [5] = test: Test Example 4: herbicidal effect by soil treatment (Table 19, symbol J); type: in vivo, blackgrass (Alopecurus myosuroides)
# Procedure, shortened: as §2
# southern crabgrass [6] = test: Test Example 5: herbicidal effect by foliage application, plastic box (Table 20, symbol F); type: in vivo, southern crabgrass (Digitaria ciliaris); details: foliage application, 320 g/ha
# Procedure, shortened: as §3
# velvetleaf [7] = test: Test Example 5: herbicidal effect by foliage application, plastic box (Table 20, symbol M); type: in vivo, velvetleaf (Abutilon theophrasti); details: foliage application, 320 g/ha
# Procedure, shortened: as §3
# Chinese sprangletop = test: Test Example 3: herbicidal effect by foliage application, Wagner pot (Table 18, symbol D); type: in vivo, chinese sprangletop (Leptochloa chinensis)
# Procedure, shortened: as §1
# chickweed [8] = test: Test Example 4: herbicidal effect by soil treatment (Table 19, symbol P); type: in vivo, common chickweed (Stellaria media)
# Procedure, shortened: as §2
# barnyard grass [9] = test: Test Example 4: herbicidal effect by soil treatment (Table 19, symbol H); type: in vivo, barnyard grass (Echinochloa crus-galli)
# Procedure, shortened: as §2
# green foxtail [10] = test: Test Example 5: herbicidal effect by foliage application, plastic box (Table 20, symbol G); type: in vivo, green foxtail (Setaria viridis); details: foliage application, 320 g/ha
# Procedure, shortened: as §3
# Italian ryegrass [11] = test: Test Example 5: herbicidal effect by foliage application, plastic box (Table 20, symbol K); type: in vivo, Italian ryegrass (Lolium multiflorum); details: foliage application, 320 g/ha
# Procedure, shortened: as §3
# persian speedwell [12] = test: Test Example 5: herbicidal effect by foliage application, plastic box (Table 20, symbol R); type: in vivo, Persian speedwell (Veronica persica); details: foliage application, 320 g/ha
# Procedure, shortened: as §3
# Italian ryegrass [13] = test: Test Example 4: herbicidal effect by soil treatment (Table 19, symbol K); type: in vivo, Italian ryegrass (Lolium multiflorum)
# Procedure, shortened: as §2
# wild oat [14] = test: Test Example 4: herbicidal effect by soil treatment (Table 19, symbol I); type: in vivo, wild oat (Avena fatua)
# Procedure, shortened: as §2
# lambsquarters [15] = test: Test Example 4: herbicidal effect by soil treatment (Table 19, symbol O); type: in vivo, lambsquarters (Chenopodium album)
# Procedure, shortened: as §2
# windgrass = test: Test Example 5: herbicidal effect by foliage application, plastic box (Table 20, symbol L); type: in vivo, windgrass (Apera spica-venti); details: foliage application, 320 g/ha
# Procedure, shortened: as §3
# blackgrass [16] = test: Test Example 5: herbicidal effect by foliage application, plastic box (Table 20, symbol J); type: in vivo, blackgrass (Alopecurus myosuroides); details: foliage application, 320 g/ha
# Procedure, shortened: as §3
# persian speedwell [17] = test: Test Example 4: herbicidal effect by soil treatment (Table 19, symbol R); type: in vivo, Persian speedwell (Veronica persica)
# Description: [Test Example 4] Herbicidal Effect Test by Soil Treatment
# Sterilized diluvial soil was placed in a plastic box having a length of 21 cm, a width of 13 cm, and a depth of 7 cm. The seeds of each of southern crabgrass, green foxtail, barnyard grass, wild oat, blackgrass, Italian ryegrass, windgrass, velvetleaf, redroot pigweed, lambsquarters, chickweed, false cleavers, persian speedwell, corn, soybean, rice, wheat, beet, and rapeseed were sowed in a spot-like manner and covered with the soil having a thickness of about 1.5 cm. Subsequently, the emulsion agent of the compound of the present invention prepared according to Formulation Example 2 was diluted with water so as to achieve a predetermined herbicide amount, and the diluted emulsion agent was uniformly applied to the surface of the soil with a small-sized spray. The plastic box was placed in a greenhouse at 25° C. to 30° C. for growth of the plants. Three weeks after the herbicide application, the effect of the herbicide on each plant was evaluated according to the criteria of Test Example 1.
# green foxtail [18] = test: Test Example 4: herbicidal effect by soil treatment (Table 19, symbol G); type: in vivo, green foxtail (Setaria viridis)
# Procedure, shortened: as §2
# southern crabgrass [19] = test: Test Example 4: herbicidal effect by soil treatment (Table 19, symbol F); type: in vivo, southern crabgrass (Digitaria ciliaris)
# Procedure, shortened: as §2
# lambsquarters [20] = test: Test Example 5: herbicidal effect by foliage application, plastic box (Table 20, symbol O); type: in vivo, lambsquarters (Chenopodium album); details: foliage application, 320 g/ha
# Procedure, shortened: as §3
# wild oat [21] = test: Test Example 5: herbicidal effect by foliage application, plastic box (Table 20, symbol I); type: in vivo, wild oat (Avena fatua); details: foliage application, 320 g/ha
# Procedure, shortened: as §3
# chickweed [22] = test: Test Example 5: herbicidal effect by foliage application, plastic box (Table 20, symbol P); type: in vivo, common chickweed (Stellaria media); details: foliage application, 320 g/ha, evaluated three weeks after application
# Procedure, shortened: as §3
# redroot pigweed [23] = test: Test Example 5: herbicidal effect by foliage application, plastic box (Table 20, symbol N); type: in vivo, redroot pigweed (Amaranthus retroflexus); details: foliage application, 320 g/ha, evaluated three weeks after application
# Procedure, shortened: as §3
# [24] = amount of applied herbicide 320 g/ha
# [25] = evaluated three weeks after application
structure (smiles),measurement,setting,value
COCCC(=O)Oc1c(C)nn(C)c(=O)c1-c1c(-c2ccc(F)cc2)sc2ccc(F)cc12 [2-003],"herbicidal effect on H (barnyard grass), rating 0-5",barnyard grass [1]; 320 g/ha,5 (Herbicidal rate of 90% or more (almost completely withered))
same,"herbicidal effect rating, M: velvetleaf",velvetleaf [2]; 320 g/ha,5 (Herbicidal rate of 90% or more (almost completely withered))
same,effect on barnyard grass (H),barnyard grass [3]; 3 weeks after application,5 (Herbicidal rate of 90% or more (almost completely withered))
same,"herbicidal effect on E (rice flat sedge), rating 0-5",rice flat sedge; 320 g/ha,5 (Herbicidal rate of 90% or more (almost completely withered))
same,"herbicidal effect rating, N: redroot pigweed",redroot pigweed [4],5 (Herbicidal rate of 90% or more (almost completely withered))
same,"herbicidal effect rating, J: blackgrass",blackgrass [5]; 320 g/ha,3 (Herbicidal rate of 40% or more and less than 70%)
same,effect on southern crabgrass (F),southern crabgrass [6]; 3 weeks after application,5 (Herbicidal rate of 90% or more (almost completely withered))
same,effect on velvetleaf (M),velvetleaf [7]; 3 weeks after application,5 (Herbicidal rate of 90% or more (almost completely withered))
same,"herbicidal effect on D (Chinese sprangletop), rating 0-5",Chinese sprangletop; 320 g/ha,3 (Herbicidal rate of 40% or more and less than 70%)
same,"herbicidal effect rating, P: chickweed",chickweed [8]; 320 g/ha,3 (Herbicidal rate of 40% or more and less than 70%)
same,"herbicidal effect rating, H: barnyard grass",barnyard grass [9]; 320 g/ha,5 (Herbicidal rate of 90% or more (almost completely withered))
same,effect on green foxtail (G),green foxtail [10]; 3 weeks after application,5 (Herbicidal rate of 90% or more (almost completely withered))
same,effect on Italian ryegrass (K),Italian ryegrass [11]; 3 weeks after application,4 (Herbicidal rate of 70% or more and less than 90%)
same,effect on persian speedwell (R),persian speedwell [12]; 3 weeks after application,5 (Herbicidal rate of 90% or more (almost completely withered))
same,"herbicidal effect rating, K: Italian ryegrass",Italian ryegrass [13]; 320 g/ha,5 (Herbicidal rate of 90% or more (almost completely withered))
same,"herbicidal effect rating, I: wild oat",wild oat [14]; 320 g/ha,0 (Herbicidal rate of 5% or less (almost no effect))
same,"herbicidal effect rating, O: lambsquarters",lambsquarters [15]; 320 g/ha,5 (Herbicidal rate of 90% or more (almost completely withered))
same,effect on windgrass (L),windgrass; 3 weeks after application,4 (Herbicidal rate of 70% or more and less than 90%)
same,effect on blackgrass (J),blackgrass [16]; 3 weeks after application,4 (Herbicidal rate of 70% or more and less than 90%)
same,"herbicidal effect rating, R: persian speedwell",persian speedwell [17]; 320 g/ha,4 (Herbicidal rate of 70% or more and less than 90%)
same,"herbicidal effect rating, G: green foxtail",green foxtail [18]; 320 g/ha,5 (Herbicidal rate of 90% or more (almost completely withered))
same,"herbicidal effect rating, F: southern crabgrass",southern crabgrass [19]; 320 g/ha,5 (Herbicidal rate of 90% or more (almost completely withered))
same,effect on lambsquarters (O),lambsquarters [20]; 3 weeks after application,5 (Herbicidal rate of 90% or more (almost completely withered))
same,effect on wild oat (I),wild oat [21]; 3 weeks after application,2 (Herbicidal rate of 20% or more and less than 40%)
CCCC(=O)Oc1c(C)nn(C)c(=O)c1-c1c(-c2ccccc2)sc2ccc(C)cc12 [2-133],herbicidal effect on H: barnyard grass,barnyard grass [1]; [24],0 (Herbicidal rate of 5% or less (almost no effect))
same,"M: velvetleaf, herbicidal effect rating",velvetleaf [2]; [24],0 (Herbicidal rate of 5% or less (almost no effect))
same,herbicidal effect on H: barnyard grass,barnyard grass [3]; [25],0 (Herbicidal rate of 5% or less (almost no effect))
same,herbicidal effect on E: rice flat sedge,rice flat sedge; [24],5 (Herbicidal rate of 90% or more (almost completely withered))
same,herbicidal effect on P: chickweed,chickweed [22],5 (Herbicidal rate of 90% or more (almost completely withered))
same,"J: blackgrass, herbicidal effect rating",blackgrass [5]; [24],0 (Herbicidal rate of 5% or less (almost no effect))
same,herbicidal effect on F: southern crabgrass,southern crabgrass [6]; [25],0 (Herbicidal rate of 5% or less (almost no effect))
same,herbicidal effect on M: velvetleaf,velvetleaf [7]; [25],5 (Herbicidal rate of 90% or more (almost completely withered))
same,herbicidal effect on D: Chinese sprangletop,Chinese sprangletop; [24],0 (Herbicidal rate of 5% or less (almost no effect))
same,"P: chickweed, herbicidal effect rating",chickweed [8]; [24],5 (Herbicidal rate of 90% or more (almost completely withered))
same,"H: barnyard grass, herbicidal effect rating",barnyard grass [9]; [24],0 (Herbicidal rate of 5% or less (almost no effect))
same,herbicidal effect on G: green foxtail,green foxtail [10]; [25],2 (Herbicidal rate of 20% or more and less than 40%)
same,herbicidal effect on K: Italian ryegrass,Italian ryegrass [11]; [25],3 (Herbicidal rate of 40% or more and less than 70%)
same,herbicidal effect on R: persian speedwell,persian speedwell [12]; [25],2 (Herbicidal rate of 20% or more and less than 40%)
same,"K: Italian ryegrass, herbicidal effect rating",Italian ryegrass [13]; [24],0 (Herbicidal rate of 5% or less (almost no effect))
same,"I: wild oat, herbicidal effect rating",wild oat [14]; [24],0 (Herbicidal rate of 5% or less (almost no effect))
same,"O: lambsquarters, herbicidal effect rating",lambsquarters [15]; [24],5 (Herbicidal rate of 90% or more (almost completely withered))
same,herbicidal effect on L: windgrass,windgrass; [25],0 (Herbicidal rate of 5% or less (almost no effect))
same,herbicidal effect on J: blackgrass,blackgrass [16]; [25],0 (Herbicidal rate of 5% or less (almost no effect))
same,herbicidal effect on N: redroot pigweed,redroot pigweed [23],5 (Herbicidal rate of 90% or more (almost completely withered))
same,"R: persian speedwell, herbicidal effect rating",persian speedwell [17]; [24],0 (Herbicidal rate of 5% or less (almost no effect))
same,"G: green foxtail, herbicidal effect rating",green foxtail [18]; [24],0 (Herbicidal rate of 5% or less (almost no effect))
same,"F: southern crabgrass, herbicidal effect rating",southern crabgrass [19]; [24],0 (Herbicidal rate of 5% or less (almost no effect))
same,herbicidal effect on O: lambsquarters,lambsquarters [20]; [25],4 (Herbicidal rate of 70% or more and less than 90%)
same,herbicidal effect on I: wild oat,wild oat [21]; [25],0 (Herbicidal rate of 5% or less (almost no effect))
